In ChEMBL document CHEMBL3044722, “Potent enantioselective auxin: indole-3-succinic acid” (2002):

Assays:
Assay type in all cases: functional
[1] = test system: Fuchsia; assay: Induction of root growth in swingtime Fuchsia hybrida at 10^-8 M after 7 to 34 days relative to indole-3-butyric acid
[2] = test system: Fuchsia; assay: Induction of root growth in varigated Fuchsia hybrida at 10^-8 M after 7 to 34 days relative to indole-3-butyric acid
[3] = test system: Fuchsia; assay: Induction of root growth in swingtime Fuchsia hybrida at 10^-7 M after 7 to 34 days relative to indole-3-butyric acid
[4] = test system: Fuchsia; assay: Induction of root growth in varigated Fuchsia hybrida at 10^-7 M after 7 to 34 days relative to indole-3-butyric acid

Row | Structure (SMILES) | Ratio [1] | Ratio [2] | Ratio [3] | Ratio [4]
1 | O=C(O)C[C@H](C(=O)O)c1c[nH]c2ccccc12 | 4.8 | 4.6 | 5.7 | 3.8
2 | O=C(O)C[C@@H](C(=O)O)c1c[nH]c2ccccc12 | 7.1 | 4.4 | 5.6 | 0.7
3 | O=C(O)CC(C(=O)O)c1c[nH]c2ccccc12 (racemic) |  |  | 7 | 
4 | O=C(O)Cc1c[nH]c2ccccc12 [INDOLE-3-ACETIC ACID] |  |  | 0 | 0
